According to patent US20080234341A1, “Carisoprodol and Phenytoin Methods” (MUTUAL PHARMACEUTICAL COMPANY, INC., priority 2006, published 2008):

Tests used:
[1] = cited from earlier work
[2] = cited from earlier work; remark: listed apart in the source
[3] = Drug interaction study: carisoprodol added to a steady-state regimen of phenytoin; conditions: human, in vivo; for half-life / Tmax: least sq. mean
Experimental: A single-arm, two-way drug interaction study was conducted in which carisoprodol (350 mg SOMA®) was added to a steady state regimen of phenyloin (PROMPT® Phenyloin Sodium 100 mg Capsules). The effects of coadministration of carisoprodol at steady state conditions on the Cmax and AUC of phenyloin are summarized in Table 5. Twenty-four healthy adults participated in this comparison study and twenty-one of the subjects completed the study.
On study Days 1 through 14, a single 300 mg (1×300 mg capsule) dose of phenyloin sodium was administered to all study subjects following an overnight fast of at least 10 hours.
On study Days 15 through 28, a single 300 mg (1×300 mg capsule) dose of phenyloin sodium and a single 350 mg (1×350 mg tablet) dose of carisoprodol were co-administered to all study subjects following an overnight fast of at least 10 hours. A single dose of carisoprodol was re-administered to all study subjects 3 more times a day (every 6 hours) for Days 15 through 28.
Phenyloin: On study Days 14 and 28, 18 blood samples were collected (6 mL each) from each subject by direct venipuncture using pre-labeled Vacutainers® containing K2 EDTA as an anticoagulant. Blood samples were collected within one hour prior to dosing and after dose administration at study hours 0.5, 1, 1.5, 2, 2.5, 3, 3.5, 4, 4.5, 5, 6, 7, 8, 10, 12, 18, and 24.

[4] = system: plasma proteins in the bloodstream such as albumin; conditions: cited from earlier work
[5] = Single-dose two-way crossover study of phenytoin pharmacokinetics, alone or co-administered with carisoprodol; conditions: human, in vivo; for half-life / Tmax: least sq. mean
Experimental: The study was designed as a randomized, single-dose two-way crossover to compare the pharmacokinetic parameters of carisoprodol (350 mg SOMA® (carisoprodol) Tablets by MedPointe Pharmaceuticals, MedPointe Healthcare Inc.) and phenyloin (PROMPT® Phenyloin Sodium 100 mg Capsules by IVAX Pharmaceuticals, Inc.). Twelve healthy adults participated in this comparison study and all of the subjects completed the study.
Subjects received two separate drug administration treatments in assigned periods, one treatment per period, according to the randomization schedule. Treatment (A) was 3 PROMPT® Phenyloin Sodium 100 mg capsules with 240 mL of room temperature water after an overnight fast. Treatment (B) was 3 PROMPT® Phenyloin Sodium 100 mg capsules and 2 tablets of SOMA® (carisoprodol 350 mg tablets) after an overnight fast.
Dosing days were separated by a washout period of at least fourteen days. Blood samples were drawn prior to dosing (pre-dose) and at 0.5, 1, 1.5, 2, 2.5, 3, 3.5, 4, 4.5, 5, 6, 7, 8, 10, 12, 18, 24, and 48 hours post-dose. The samples were then analyzed for total phenyloin. At study hours 2, 4, 6, 12 and 24 an additional blood sample was collected for the determination of “free” phenyloin.
The area under the plasma concentration versus time curve [AUCt] may be calculated using the linear trapezoidal rule from the zero time point to the last measured concentration.
The area under the plasma concentration versus time curve from zero to infinity [AUC0-INF] may be calculated by adding Ct/Kelm to AUC where Ct is the last measured concentration and Kelm is the elimination rate constant.
The maximum observed plasma concentration [Cmax] may be obtained by inspection.
The time to maximum plasma concentration [Tmax] may be obtained by inspection. If the same maximum plasma concentration occurs at more than one time point, the first may be chosen as Tmax.
The terminal elimination rate constant [Kelm] may be obtained from the slope of the line, fitted by linear least squares regression, through the terminal points of the ln(base e) of the concentration versus time plot for these points.
The half-life [T1/2] may be calculated by the equation T1/2=0.693/Kelm.

## CCCC(C)(COC(N)=O)COC(=O)NC(C)C (centres unmarked) [Carisoprodol, N-isopropyl-2-methyl-2-propyl-1,3-propanediol dicarbamate]
[1]; alcohol, chloroform, acetone
  solubility in alcohol, chloroform, and acetone (descriptive): freely soluble
[1]; water
  solubility in water (descriptive): very sparingly soluble

## O=C1NC(=O)C(c2ccccc2)(c2ccccc2)N1 [Phenytoin, 5,5-diphenylhydantoin]
[2]; free phenytoin
  typical clinically effective serum level of unbound or free phenytoin (therapeutic range): 1 to 2 µg/mL
[2]; total phenytoin
  typical clinically effective serum level of total phenytoin (therapeutic range): 10 to 20 µg/mL
[3]
  AUC0-INF, free steady-state phenytoin, geometric mean: 32701.49 ng·h/mL
  AUC0-t, free steady-state phenytoin, geometric mean: 14733.48 ng·h/mL
  Cmax, total steady-state phenytoin, geometric mean: 13604.17 ng/mL
  kelm, free steady-state phenytoin, least sq. mean: 0.0312
  kelm, total steady-state phenytoin, least sq. mean: 0.0233
[3]; 350 mg
  Cmax, free steady-state phenytoin, geometric mean: 929.76 ng/mL
[3]; T1/2, free steady-state phenytoin
  half-life: 35.4 h
[3]; T1/2, total steady-state phenytoin
  half-life: 39.4 h
[3]; free steady-state phenytoin
  Tmax: 5.04 h
[3]; total steady-state phenytoin
  Tmax: 3.55 h
[4]
  bound to plasma proteins: about 90%
[5]
  AUC0-INF, free phenytoin, geometric mean: 12927.88 ng·h/mL
  AUC0-t, free phenytoin, geometric mean: 5150.25 ng·h/mL
  AUC(0-inf): 134000 ng·h/mL
  AUC(0-t): 97300 ng·h/mL
  Cmax, total phenytoin, geometric mean: 3222.2 ng/mL
  Kelm, total phenytoin, least sq. mean: 0.03395
  kelm, free phenytoin, least sq. mean: 0.0279
[5]; T1/2, free phenytoin
  half-life: 35.8 h
[5]; T1/2, total phenytoin
  half-life: 23.9 h
[5]; free phenytoin
  Tmax: 9.17 h
[5]; total phenytoin
  Tmax: 7.44 h
